The source of these data is PubChem BioAssay AID588620 (NMMLSC, 2011).

Active and inactive are the calls of the source.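 The calls were made as follows: active = fitted half-maximal concentration below 30 µM for cell fluorescence in pump-free yeast, so likely self-fluorescent; inactive = the rest.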

This experiment in a line: concentration-dependent intrinsic compound fluorescence, S. cerevisiae AD/pABC3, flow cytometry, Cherry Pick1 hits, artefact control for antifungal efflux pump inhibitor project, dose response (AID 588620).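 Also: red emission of unstained cells excited at 488 nm measured in PE-Texas Red channel; cell median fluorescence as percent of DMSO wells so 100% equals vehicle baseline.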 The following applies: S. cerevisiae AD/pABC3 compound autofluorescence, flow cytometry; at 33.1 µM (top of the series). (Flow cytometry measures light scatter and fluorescence of single cells or particles in a stream.)
Consider `CCOc1ccc(C(=O)Nc2cccc(-c3cc4ccccc4oc3=O)c2)cc1[N+](=O)[O-]`, for which the fluorescence response, % of control was 94.4% (inactive). In the case of `COc1cc2c(cc1NC(=O)CSc1nnc(Cc3cccs3)n1Cc1ccco1)oc1ccccc12`, the fluorescence response, % of control is 85.8% (inactive).

As for `CC1(C)CC2(CC(c3cccs3)c3cc(Cl)c(O)cc3O2)NC(=S)N1` (stereo not drawn), the fluorescence response, % of control is 113% (inactive). For the compound `COC(=O)c1ccc(S(=O)(=O)NCc2ccc(OC)cc2)n1C`, the fluorescence response, % of control is 96.9% (inactive).

For the compound `O=[N+]([O-])c1cc(/C=N\Nc2ccccn2)ccc1Cl`, the fluorescence response, % of control is 96.1% (inactive).

As to `O=C(Cc1c2ccccc2nc2ccccc12)c1ccccc1`, the fluorescence response, % of control was 98.7% (inactive). For the compound `COc1ccc(-c2sc3ccc(OC)cc3c2-c2ccc(OCCN3CCOCC3)cc2)cc1`, the fluorescence response, % of control was 96.3% (inactive). The same measure for `COc1ccc(S(=O)(=O)N(C)C[C@H]2Oc3c(NC(=O)NC4CCCCC4)cccc3C(=O)N([C@H](C)CO)C[C@@H]2C)cc1`: 119% (inactive); for `CCOC(=O)c1c(-c2ccc(-c3ccccc3)cc2)csc1NC(=O)CNCCN(C)C`: 135% (inactive); for `Cc1ccc(CC2CC(=O)N(Cc3ccco3)C2=O)cc1` (stereo not drawn): 93.5% (inactive).

For `COC(=O)c1ccc(CN2CCC(Oc3cccc(C(=O)N4CCCC4)c3)CC2)cc1`, the fluorescence response, % of control was 95.7% (inactive). The same measure for `CCC1Nc2ncnc(N3CCN(c4ccccc4)CC3)c2N(Cc2ccccc2)C1=O` (stereo not drawn): 103% (inactive); for `CCOC(=O)c1sc2nc3c(SCC(=O)O)cc(C(=O)c4ccccc4O)cn3c(=O)c2c1C`: 132% (inactive).

With `CCN(CC)c1ccc(/C=C/c2cc(-c3ccccc3)c3ccccc3n2)cc1`, the fluorescence response, % of control is 406% (inactive). `Nc1ncc2c(n1)-c1cc(Cl)ccc1SC2`: the fluorescence response, % of control is 102% (inactive). As for `Cc1noc(C)c1C(=O)N1CCC2(CC1)Oc1ccc(F)cc1C(=O)C21CC(c2ccc(Cl)cc2)=NO1` (stereo not drawn), the fluorescence response, % of control was 90.5% (inactive).

Take `CCC(=O)N1CCC2(CC1)Oc1ccc(Cl)cc1C(=O)C21CC(c2ccc(Cl)cc2)=NO1` (stereo not drawn): the fluorescence response, % of control was 89.8% (inactive). As to `O=c1[nH]c(C2CCN(S(=O)(=O)c3ccc4c(c3)OCCO4)CC2)nc2c1nnn2Cc1cccc(F)c1`, the fluorescence response, % of control is 172% (inactive).

For the compound `CCCCOc1ccc(C(=O)NCC(=O)OCC(=O)c2c(N)n(C)c(=O)n(C)c2=O)cc1`, the fluorescence response, % of control is 89% (inactive). `COc1cc2c(=O)n(Cc3ccco3)c(=O)n(CC(=O)c3cccc(Br)c3)c2cc1OC`: the fluorescence response, % of control was 86.2% (inactive). Take `CCCCCCCCn1ccc(=N)cc1`: the fluorescence response, % of control was 102% (inactive). The same measure for `Clc1ccc(Cn2nc(-c3ccccc3)nc2-c2ccccc2)cc1`: 108% (inactive). As for `Cc1cc(C)cc(-n2ncc3c2CCCC3NC(=O)c2cc(C)[nH]n2)c1` (stereo not drawn), the fluorescence response, % of control was 96.3% (inactive). Take `O=[N+]([O-])c1cnc2ccc3ccccc3c2c1`: the fluorescence response, % of control is 122% (inactive). With `CC1(C)Cc2c(cnn2-c2ccc(F)cc2)C(NC(=O)c2cnccn2)C1` (stereo not drawn), the fluorescence response, % of control is 102% (inactive).

As to `O=C(c1ccc2c(c1)OCO2)N1CCC2(CC1)Oc1ccc(F)cc1C(=O)C21CC(c2ccc(Cl)cc2)=NO1` (stereo not drawn), the fluorescence response, % of control was 165% (inactive). Turning to `Cc1ccc(Cn2nnc3c(=O)[nH]c(C4CCN(S(=O)(=O)c5ccc(C)cc5)CC4)nc32)cc1`, the fluorescence response, % of control is 91.7% (inactive). The result for `Cc1ccc(CSC2=Nc3ccccc3C3=NC(CC(=O)NCc4ccco4)C(=O)N23)cc1` (stereo not drawn) reads 89% (inactive); that for `CCC(Sc1nc2ccsc2c(=O)n1Cc1ccc(C(=O)O)cc1)C(=O)Nc1ccc(C)c(Cl)c1` (stereo not drawn), 81.2% (inactive). For `COc1ccccc1CNS(=O)(=O)c1ccc2c(c1)CC(C)N2C(=O)C1CCC1` (stereo not drawn), the fluorescence response, % of control is 85.7% (inactive). For the compound `CCOc1ccc(S(=O)(=O)N(C(=O)c2ccco2)c2cc3sc(=O)oc3c3ccccc23)cc1`, the fluorescence response, % of control is 92.2% (inactive). As for `O=C(c1ccoc1)N1CCC2(CC1)Oc1ccc(F)cc1C(=O)C21CC(c2ccccc2)=NO1` (stereo not drawn), the fluorescence response, % of control was 85.1% (inactive).

Consider `O=C(O)CCCN1C(=O)/C(=C\c2ccc(-c3nc4ccccc4s3)o2)SC1=S`, for which the fluorescence response, % of control is 288% (inactive). The same measure for `CCCCn1c(N)c(N(CC(C)C)C(=O)CN2C(=O)NC3(CC(C)CC(C)(C)C3)C2=O)c(=O)[nH]c1=O` (stereo not drawn): 95.1% (inactive); for `NC1=NC[C@H](Cc2ccccc2)N1CCCCC1CCCCC1`: 127% (inactive). In the case of `Cc1ccc(-c2cc(C(=O)Nc3ccc(S(=O)(=O)Nc4onc(C)c4C)cc3)c3ccccc3n2)cc1`, the fluorescence response, % of control is 88.3% (inactive). In the case of `CCCOc1ccc(/C=c2\sc3nc(-c4ccco4)nn3c2=O)cc1OCC`, the fluorescence response, % of control is 95.1% (inactive).

In the case of `O=C1C(Cc2ccccc2)Nc2ncnc(N3CCN(c4ccccc4)CC3)c2N1Cc1ccc(Br)cc1` (stereo not drawn), the fluorescence response, % of control was 116% (inactive). Turning to `O=C(NC1CCCCC1)c1cc2ccccc2cc1O`, the fluorescence response, % of control was 78.8% (inactive). The same measure for `COc1cccc(-c2sc3ccc(OC)cc3c2-c2ccc(OCCN3CCCC3)cc2)c1`: 112% (inactive); for `COc1ccc(C2=NCC(=O)N(CC(=O)NCc3ccco3)c3sc4c(c32)CCCC4)cc1`: 95.7% (inactive); for `Cc1ccc(Cn2nnc3c(=O)[nH]c(C4CCN(S(=O)(=O)c5ccccc5F)CC4)nc32)cc1`: 90.8% (inactive). For the compound `Cc1ccccc1S(=O)(=O)Nc1nc2ccccc2nc1N1CCc2ccccc2C1`, the fluorescence response, % of control is 103% (inactive). Turning to `COc1cccc(C(=O)NC2CC(C)(C)Cc3c2cnn3-c2cccc(F)c2)c1OC` (stereo not drawn), the fluorescence response, % of control is 121% (inactive). Turning to `Nc1ccc2nc(-c3cccc(-c4nc5ccc(N)cc5[nH]4)c3)[nH]c2c1`, the fluorescence response, % of control was 99.3% (inactive). The result for `COc1cccc(-c2sc3cc(OC)c(OC)cc3c2-c2ccc(OCCN3CCCCC3)cc2)c1` reads 112% (inactive); that for `Cc1cc(C(=O)NC2CC(C)(C)Cc3c2cnn3-c2cccc(F)c2)n(C)n1` (stereo not drawn), 82.7% (inactive); that for `COc1ccc(-c2nc(C(N)=O)c3[nH]c(=O)n(-c4ccccc4OC)c3n2)c(OC)c1`, 74% (inactive). For `O=C(Nc1ccc(O)cc1C(=O)O)c1ccc(NC(=O)c2ccco2)cc1`, the fluorescence response, % of control was 92.4% (inactive). Regarding `CCc1ccc(N=C2NC(=O)/C(=C/c3cc(OC)c(O)c(OC)c3)S2)cc1`, the fluorescence response, % of control was 419% (inactive).

For the compound `COc1ccc(-c2nc3ccccc3c(=O)n2CCOc2ccccc2C)cc1`, the fluorescence response, % of control was 103% (inactive). The same measure for `COc1ccc(-c2nc(Cn3c(SCc4ccc(C)cc4)nc4ccncc43)c(C)o2)cc1OC`: 87.6% (inactive); for `CSCCC(NC(=O)c1ccccc1Cl)C(=O)N1CCN(C(c2ccccc2)c2ccccc2)CC1` (stereo not drawn): 80.9% (inactive). Consider `CCC(Sc1nc2cc(OC)c(OC)cc2c(=O)n1CCc1ccc(OC)c(OC)c1)C(=O)NCCOC` (stereo not drawn), for which the fluorescence response, % of control was 83.6% (inactive). As for `COc1ccc([C@H]2CC(=O)C=C(c3ccnc4ccc(Cl)cc34)C2)cc1`, the fluorescence response, % of control is 92.4% (inactive).

On to `Cc1cc(C(=O)COC(=O)c2ccc[nH]c2=O)c(C)n1-c1ccc(F)cc1`, for which the fluorescence response, % of control is 102% (inactive). In the case of `CC(C)c1ccc(S(=O)(=O)Nc2ccc(O)c(Sc3ncn[nH]3)c2)cc1`, the fluorescence response, % of control is 151% (inactive). Consider `O=C(O)CCN1C(=O)/C(=C\c2ccc(-c3nc4ccccc4s3)o2)SC1=S`, for which the fluorescence response, % of control is 102% (inactive). With `COc1ccc2c(c1)C(=O)N1[C@H]3c4cc(Cl)ccc4OC[C@@H]3[C@H](c3ccccc3)[C@]1(C)C(=O)N2`, the fluorescence response, % of control was 98.5% (inactive). The same measure for `COc1ccc(N2C(=O)CC(N3CCN(c4ccc(C(=O)c5cccnc5)cc4)CC3)C2=O)cc1` (stereo not drawn): 88.6% (inactive); for `CCCOc1ccc(-c2nc(N3CCN(C)CC3)c3ccccc3n2)cc1`: 95.7% (inactive); for `O=C(/C=C/c1cccs1)N1CCC2(CC1)Oc1ccc(F)cc1C(=O)C21CC(c2ccccc2)=NO1` (stereo not drawn): 96.4% (inactive). Regarding `O=C1c2cc(Cl)ccc2OC2(CCNCC2)C12CC(c1ccc(Cl)cc1)=NO2` (stereo not drawn), the fluorescence response, % of control is 106% (inactive). In the case of `C#CC[N+](C)(C)CCCCCCCCCCCC`, the fluorescence response, % of control was 117% (inactive). As to `NC(=O)c1nc(-c2cccs2)nc2c1[nH]c(=O)n2-c1ccc(F)cc1`, the fluorescence response, % of control is 93.5% (inactive). `CCOc1ccccc1-c1nc(C(N)=O)c2[nH]c(=O)n(-c3cccc(C)c3)c2n1`: the fluorescence response, % of control is 80.3% (inactive). Take `COc1ccc2[nH]c3c(C)c4cc[n+](C)cc4c(C)c3c2c1`: the fluorescence response, % of control was 153% (inactive). On to `COc1ccc2c(-c3ccc(OCCN4CCOCC4)cc3)c(-c3ccccc3OC)sc2c1`, for which the fluorescence response, % of control is 102% (inactive). The result for `Cc1ccsc1-c1nc(C(N)=O)c2[nH]c(=O)n(-c3ccc(Cl)cc3)c2n1` reads 102% (inactive); that for `O=C(c1ccc2c(c1)OCO2)N1CCC2(CC1)Oc1ccc(Cl)cc1C(=O)C21CC(c2ccccc2)=NO1` (stereo not drawn), 90.9% (inactive). The result for `Cc1c(NC(=O)c2ncn[nH]2)cccc1-c1nc2ccccc2s1` reads 109% (inactive); that for `N#CC(C(=O)NCc1ccccc1)c1nc2ccccc2nc1N1CCCC1` (stereo not drawn), 102% (inactive). As for `CC(C)c1ccc(/C=c2\sc3nc(-c4ccncc4)nn3c2=O)cc1`, the fluorescence response, % of control is 82.5% (inactive).
